This note sets out measurements from patent publication US20240246941A1, “SUBSTITUTED 4-(3-AMINOPROP-1-YL)AMINOQUINOLINE ANALOGS AS MODULATORS OF MELANOMA-ASSOCIATED ANTIGEN 11 UBIQUITIN LIGASE” (ST. JUDE CHILDREN'S RESEARCH HOSPITAL, INC., priority 2020, published 2024).

This assay has as its target MAGE-A11:PCF11 (Homo sapiens (Human), UniProt P43364). Put plainly: TR-FRET single point screening at 15 μM. Type of assay: binding. Also on record: unit not given here. In outline:
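Single-point screen at 15 μM (0.25% DMSO) measuring disruption of GST-MAGEA11 (5 nM) binding to FAM-PCF11_4 peptide (200 nM) detected by Tb-anti-GST (5 nM). Buffer 50 mM Tris pH 7.5, 20 mM MgCl2, 0.1 mg/ml BSA, 1 mM DTT; 90 min at ~25 °C; 520/490 nm ratio converted to % inhibition versus controls.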

[1] abbreviates: single point TR-FRET screening of quinoline compounds against MAGE-A11:PCF11, 15 μM.
[2] abbreviates: single point TR-FRET screening at 15 μM against MAGE-A11:PCF11.

Chain of MAGE-A11:PCF11 (P43364 218-429): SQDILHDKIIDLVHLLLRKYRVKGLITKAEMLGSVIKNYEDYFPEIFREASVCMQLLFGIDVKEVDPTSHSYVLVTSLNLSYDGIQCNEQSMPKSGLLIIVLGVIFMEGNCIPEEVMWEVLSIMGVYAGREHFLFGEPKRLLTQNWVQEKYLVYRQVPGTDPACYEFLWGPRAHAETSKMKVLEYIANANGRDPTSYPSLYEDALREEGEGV

Under setting [1], `FC(F)(F)c1ccc2c(NCCCNCc3cccnc3)ccnc2c1` [SJ000521042] returned a TR-FRET signal of 15.04. Under setting [1], `Cn1cc(CNCCCNc2ccnc3cc(C(F)(F)F)ccc23)c2ccccc21` [SJ000521043] displayed a TR-FRET signal of 29.11. Under setting [1], `COC(=O)CCCCCNCCCNc1ccnc2cc(C(F)(F)F)ccc12` [SJ000521044] came in with a TR-FRET signal of 19.59. Still for that read-out and setting: then `FC(F)(F)c1ccc2c(NCCCNCc3nccs3)ccnc2c1` [SJ000521046], with 7.779; and `CC(C)(C)CCNCCCNc1ccnc2cc(C(F)(F)F)ccc12` [SJ000521053], with 27.36; and `CCCCNCCCNc1ccnc2cc(C(F)(F)F)ccc12` [SJ000521055], with 18.54. Same read-out and setting: then `FC(F)(F)c1ccc2c(NCCCNCc3cc(Br)cs3)ccnc2c1` [SJ000521056], with 32.72; and `FC(F)(F)c1ccc2c(NCCCNCc3cc4ccccc4o3)ccnc2c1` [SJ000521057], with 27.48. Same read-out and setting: the figure for `FC(F)(F)c1ccc2c(NCCCNCc3cc4ccccc4s3)ccnc2c1` [SJ000521060] is 35.63; for `FC(F)(F)c1ccc2c(NCCCNCc3csc4ccccc34)ccnc2c1` [SJ000521061] it is 41.86; for `FC(F)(F)c1ccc2c(NCCCNCc3nc4ccccc4s3)ccnc2c1` [SJ000521062] it is 14.43. Turning to `FC(F)(F)c1ccc2c(NCCCNCC3CCOC3)ccnc2c1` (stereo not drawn) [SJ000521065], under setting [1], the TR-FRET signal came out at 15.56. On the same count and under the same terms, the figure for `Cn1ccnc1CNCCCNc1ccnc2cc(C(F)(F)F)ccc12` [SJ000521068] is 10.19; for `Clc1ccc2c(NCCCN(Cc3ccccc3)Cc3ccc[nH]3)ccnc2c1` [SJ000522717] it is 20.46. Under setting [2], `Clc1ccc2c(NCCCCN(Cc3ccccc3)Cc3ccccc3)ccnc2c1` [SJ000522718] displayed a TR-FRET signal of 17.35. In turn, `Clc1ccc2c(NCCCN(Cc3ccccc3)Cc3ccc4c(c3)OCO4)ccnc2c1` [SJ000522719] yielded a TR-FRET signal under setting [1] of 9.001. Still for that read-out and setting: the figure for `COc1ccc(CN(CCCNc2ccnc3cc(Cl)ccc23)Cc2ccccc2)cc1` [SJ000522720] is 11.78. The same measure, in the same setting: the figure for `Fc1ccc(CN(CCCNc2ccnc3cc(Cl)ccc23)Cc2ccccc2)cc1` [SJ000522721] is 18.08; for `COc1ccccc1CN(CCCNc1ccnc2cc(Cl)ccc12)Cc1ccccc1` [SJ000522722] it is 4.43. As to `Clc1ccc2c(NCCCCN(Cc3ccccc3)Cc3ccc4c(c3)OCO4)ccnc2c1` [SJ000522723], under setting [2], the TR-FRET signal came to 16.51. On the same count and under the same terms, the figure for `COc1ccc(CN(CCCCNc2ccnc3cc(Cl)ccc23)Cc2ccccc2)cc1` [SJ000522724] is 6.683.

Under setting [2], `Fc1ccc(CN(CCCCNc2ccnc3cc(Cl)ccc23)Cc2ccccc2)cc1` [SJ000522725] displayed a TR-FRET signal of 30.2. The same measure, in the same setting: the figure for `COc1ccccc1CN(CCCCNc1ccnc2cc(Cl)ccc12)Cc1ccccc1` [SJ000522726] is 19.4; for `CN(C)c1ccc(CN(CCCCNc2ccnc3cc(Cl)ccc23)Cc2ccccc2)cc1` [SJ000522727] it is 21.52; for `COc1ccc(CN(CCCCNc2ccnc3cc(Cl)ccc23)Cc2ccccc2)cc1OC` [SJ000522728] it is 0.05797. In turn, `Clc1ccc2c(NCCCCN(CCCc3ccccc3)Cc3ccccc3)ccnc2c1` [SJ000522729] had a TR-FRET signal under setting [2] of 27.82. On to `CCCN(CCCNc1c2ccc(Cl)cc2nc2ccc(OC)cc12)CCCSC` [SJ000522730], for which, under setting [1], the TR-FRET signal was 0.7867. On to `CCCN(CCCNc1c2ccc(Cl)cc2nc2ccc(OC)cc12)CCC(C)c1ccccc1` (stereo not drawn) [SJ000522731], for which the TR-FRET signal under setting [2] is −121. `CCCN(CCCNc1c2ccc(Cl)cc2nc2ccc(OC)cc12)Cc1ccc2[nH]ccc2c1` [SJ000522732] had a TR-FRET signal under setting [1] of 39.47. For the molecule `CCCN(CCCNc1c2ccc(Cl)cc2nc2ccc(OC)cc12)Cc1c(F)cccc1OC` [SJ000522733], under setting [2], the TR-FRET signal is reported as −187.1. In turn, `CCCN(CCCNc1c2ccc(Cl)cc2nc2ccc(OC)cc12)Cc1c(F)c(F)c(F)c(F)c1F` [SJ000522734] gave a TR-FRET signal under setting [1] of −2.258. In the case of `CCCN(CCCNc1c2ccc(Cl)cc2nc2ccc(OC)cc12)Cc1ccc([N+](=O)[O-])s1` [SJ000522735], the TR-FRET signal under setting [2] is on record as −154.4. The same measure, in the same setting: then `CCCN(CCCNc1c2ccc(Cl)cc2nc2ccc(OC)cc12)Cc1cn(C(C)=O)c2ccccc12` [SJ000522736], with −192.4. `CCCN(CCCNc1c2ccc(Cl)cc2nc2ccc(OC)cc12)Cc1cc2ccccc2nc1Cl` [SJ000522737] displayed a TR-FRET signal under setting [1] of −83.74. The same measure, in the same setting: then `CCCN(CCCNc1c2ccc(Cl)cc2nc2ccc(OC)cc12)Cc1ccc(Cl)c([N+](=O)[O-])c1` [SJ000522738], with −71.03.

Regarding `CCCN(CCCNc1c2ccc(Cl)cc2nc2ccc(OC)cc12)Cc1cccc(C#N)c1` [SJ000522739], under setting [2], the TR-FRET signal was −94.54. Consider `CCCN(CCCNc1c2ccc(Cl)cc2nc2ccc(OC)cc12)Cc1ccc(-c2ccccc2)cc1` [SJ000522740], for which the TR-FRET signal under setting [1] is reported as −74.01. Still for that read-out and setting: the figure for `CN(C)c1ccc(CN(CCCNc2ccnc3cc(Cl)ccc23)Cc2ccccc2)cc1` [SJ000522741] is 14.76. In turn, `COc1ccc(CN(CCCNc2ccnc3cc(Cl)ccc23)Cc2ccccc2)cc1OC` [SJ000522742] yielded a TR-FRET signal under setting [1] of −0.5383. On the same count and under the same terms, then `CCCN(CCCNc1ccnc2cc(Cl)ccc12)Cc1ccccn1` [SJ000522743], with 1.313; and `CCCN(CCCNc1ccnc2cc(Cl)ccc12)Cc1ccsc1` [SJ000522744], with 7.824.

`CCCN(CCCNc1ccnc2cc(Cl)ccc12)Cc1ccccc1C(F)(F)F` [SJ000522745] showed a TR-FRET signal under setting [1] of −38.03. The same measure, in the same setting: then `CCCN(CCCNc1ccnc2cc(Cl)ccc12)Cc1ccc2[nH]ccc2c1` [SJ000522746], with 96.84; and `CCCN(CCCNc1ccnc2cc(Cl)ccc12)Cc1ccccc1N` [SJ000522747], with 15.43.

On to `CCCN(CCCNc1ccnc2cc(Cl)ccc12)Cc1c(F)c(F)c(F)c(F)c1F` [SJ000522748], for which the TR-FRET signal under setting [1] came to 19.87. On the same count and under the same terms, then `CCCN(CCCNc1ccnc2cc(Cl)ccc12)Cc1c(C)cc(C)cc1C` [SJ000522749], with 35.43. `CCCN(CCCNc1ccnc2cc(Cl)ccc12)Cc1ccc([N+](=O)[O-])s1` [SJ000522750] returned a TR-FRET signal under setting [1] of 9.134. Turning to `CCCN(CCCNc1ccnc2cc(Cl)ccc12)CC1CCCCC1` [SJ000522751], under setting [1], the TR-FRET signal was 15.63. Still for that read-out and setting: the figure for `CCCN(CCCNc1ccnc2cc(Cl)ccc12)CC(CC)CC` [SJ000522752] is 14.17. Still for that read-out and setting: then `CCCN(CCCNc1ccnc2cc(Cl)ccc12)Cc1ccc2c(c1)OCO2` [SJ000522753], with 18.75; and `CCCCCN(CCC)CCCNc1ccnc2cc(Cl)ccc12` [SJ000522754], with 16.29.

In turn, `CCCN(CCCNc1ccnc2cc(Cl)ccc12)Cc1c(C)n(C)n(-c2ccccc2)c1=O` [SJ000522755] yielded a TR-FRET signal under setting [1] of 13.64. Consider `CCCN(CCCNc1ccnc2cc(Cl)ccc12)Cc1ccc(OC)cc1` [SJ000522756], for which the TR-FRET signal under setting [1] amounted to 19.14.

`CCCN(CCCNc1ccnc2cc(Cl)ccc12)Cc1ccccc1F` [SJ000522757] yielded a TR-FRET signal under setting [1] of 21.99.
